Source: patent US12678453B2, “Aerosolized formulations of HIV protease inhibitors for the treatment of airway reflux” (The Medical College of Wisconsin, Inc., priority 2020, dated 2026)
Entries after “also recorded” stand apart in the source; their conditions may differ.

Columns and labels:
[1] = test system: mouse model of laryngopharyngeal reflux (LPR); assay: in vivo mouse model of LPR (laryngeal wounding and pepsin instillation, H&E histology); conditions: for laryngeal histology (H&E) / pepsin-mediated laryngeal injury: pepsin pH7 group; for laryngeal histology (H&E): solvent (saline/PBS pH7) group
Source text: An in vivo mouse model of direct application of pepsin, to mimic laryngeal exposure during LPR, and treatment with select HIV protease inhibitors by either gavage (oral systemic delivery) or aerosolized delivery (inhaled local delivery) was used. […] Each group contained 3 mice. Six-week-old female Jackson A/J mice (Jackson Laboratory, Bar Harbor, ME), weighed one day after arrival, then weekly, on Mondays thereafter.
Avertin was the preferred anesthetic for the brief application time needed as it has a rapid induction, produces a short surgical anesthesia, and has a rapid recovery. […] For this experiment, isoflurane inhalation was used. The isoflurane, self-scavenging machine, was operated at 3% isoflurane with 2.5 liters of air per minute (LPM). The induction chamber was charged for 3-5 minutes prior to the mice being anesthetized. Mice were placed in the induction chamber for 3-5 minutes prior to any wounding or administrations. Anesthesia records were kept according to IACUC policy.
Animals secured by a copper wire attached to the board from which the mice were suspended by their upper teeth. This caused the lower jaw to fall open naturally, exposing the larynx and permitting visualization with a Zeiss microscope at 6× magnification. […] Under direct visualization, the subglottis, glottis, and supraglottis regions were superficially scratched interiorly from distal to proximal as the needle was pulled out gently, making a mild abrasion. This procedure was performed twice, with one week between woundings.
To examine the effect pepsin at acid and nonacid pH, animals were treated for 2 weeks with laryngeal instillation of pepsin (20 μL at 0.3 mg/ml, pH 7.0 or pH 4.0) at 24, 48, and 72 h post wounding procedure. During weeks 3 and 4, animals were treated with laryngeal instillation for 3 days per week. Mice were sacrificed and samples collected on Friday of the fourth week.
The twelve mice in the aerosol groups were condition in the nose-only exposure chamber (Intox) on three separate days by exposure to dry air for 10 min. Beginning the Monday (day 1) of the next week, aerosols and gavages were performed on the mice Monday through Friday (5 exposures). The aerosols and gavages continued Monday-Friday for three more weeks, with the final week consisting of 4 total exposure days, Monday-Thursday, (19 total) with the mice sacrificed and tissues harvested on Friday. Each mouse received two woundings and 12 solvent or pepsin administrations. Wounding and intratracheal administrations were concurrent with the aerosol and gavage treatments. The first wounding was performed on day 2, followed by solvent or pepsin administrations on days 3, 4, and 5. The second wounding was performed on day 8, followed by solvent or pepsin administrations on days 9, 10, and 11. In weeks 3 and 4, mice received solvent or pepsin administrations on days 16, 17, and 18 and days 23, 24, and 25. Day 26 was sacrifice and tissue harvest.
A 10 mL suspension of drug in ethanol was placed in the baffle, such that the concentration would remain constant at the equilibrium solubility. Droplets of ethanol containing dissolve drug were generated by an ultrasonic atomizer (nominal frequency 1.7 MHz) entrained by air at a flow rate of 0.5 LPM with a custom-built glass baffle (University of Minnesota, Department of Chemistry Glass Shop). The aerosol cloud was then passed through a cylindrical drying column containing an annular ring of charcoal. The ethanol is removed and the emanating dry aerosol particles of pure drug were then directed into the exposure chamber.
The mass deposited on the filters in a fixed collection time was measured gravimetrically, and with the collection time, allowed calculation of the total output rate (mg/min). The aerosol concentration (mass/volume of air) was calculated by dividing the total output rate by the air flow rate (0.5 LPM).

solubility = format: physicochemical; conditions: co-crystallization solution
Experimental: Lyophilized porcine pepsin A (Worthington Biochemical Corporation) was dissolved in water at 200 mg/mL. All ligand stock solutions, except for saquinavir mesylate, were prepared as saturated solutions in DMSO in order to dissolve the maximal amount of ligand. The solutions were centrifuged and an appropriate volume of the supernatant was added to the pepsin solution so that final mixture contained 1.6% of the ligand stock by volume. The mixtures were incubated at room temperature for 1 h, centrifuged for 10 min at 31,000 rcf, and the supernatant was used for crystallization experiments. […] In order to maximize the solubility of saquinavir in the crystallization solution, we tested solutions from the CryoSol screen (Molecular Dimensions) (PMID 28626721). Mixture SM2 consisting of 37.5% v/v dioxane, 25% v/v DMSO, 12.5% v/v ethylene glycol, 12.5% v/v 1,2-propanediol, and 12.5% v/v glycerol allowed us to increase the amount of ligand solution in the co-crystallization mixture without damaging the protein. The saturated solution of saquinavir in SM2 was treated in the same manner as solutions of other ligands except that its amount in the solution with pepsin was increased to 5% by volume.

| Structure (SMILES) | pepsin-mediated laryngeal injury (multi-layered, reactive epithelia and cell apoptosis) ([1]; aerosol, 12 mg/kg/d) | laryngeal histology (H&E) / pepsin-mediated laryngeal injury ([1]; aerosol) | laryngeal histology (H&E) ([1]; aerosol) | laryngeal histology (H&E) / pepsin-mediated laryngeal injury ([1]; gavage) | laryngeal histology (H&E) / pepsin-mediated laryngeal injury ([1]; gavage, listed as Darunavir) | laryngeal histology (H&E) ([1]; gavage) | solubility (solubility) |
| --- | --- | --- | --- | --- | --- | --- | --- |
| CC(C)CN(C[C@@H](O)[C@H](Cc1ccccc1)NC(=O)O[C@H]1CO[C@H]2OCC[C@H]21)S(=O)(=O)c1ccc(N)cc1 [darunavir, [(3a S,4R,6aR)-2,3,3a,4,5,6a-hexahydrofuro[2,3-b]furan-4-yl] N-[(2S,3R)-4-[(4-aminophenyl)sulfonyl-(2-methylpropyl)amino]-3-hydroxy-1-phenylbutan-2-yl]carbamate] | effective in preventing pepsin mediated injury | normal histology; also recorded: mild protection against pepsin-mediated damage | normal histology | appeared similar | mild reactive epithelia in the pepsin group but less than pepsin control | mild reactive epithelia in the solvent group, but less than pepsin control; also recorded: mild reactivity (rare intraepithelial lymphocytes) | – |
| CC(C)(C)NC(=O)[C@@H]1C[C@@H]2CCCC[C@@H]2CN1C[C@@H](O)[C@H](Cc1ccccc1)NC(=O)[C@H](CC(N)=O)NC(=O)c1ccc2ccccc2n1 [saquinavir, (2S)—N-[(2S,3R)-4-[(3 S,4aS,8aS)-3-(tert-butylcarbamoyl)-3,4,4a,5,6,7,8,8a-octahydro-1H-isoquinolin-2-yl]-3-hydroxy-1-phenylbutan-2-yl]-2-(quinoline-2-carbonylamino)butanediamide] | – | – | – | – | – | – | low solubility |
